We go through eight molecules from ChEMBL document CHEMBL1641477, “Shp2 protein tyrosine phosphatase inhibitor activity of estramustine phosphate and its triterpenoid analogs” (Bioorg Med Chem Lett, 2011).

Assay [1] deals with T1, Tyrosine-protein phosphatase non-receptor type 11 (Homo sapiens, UniProt Q06124).
T1 sequence (Q06124 whole entry): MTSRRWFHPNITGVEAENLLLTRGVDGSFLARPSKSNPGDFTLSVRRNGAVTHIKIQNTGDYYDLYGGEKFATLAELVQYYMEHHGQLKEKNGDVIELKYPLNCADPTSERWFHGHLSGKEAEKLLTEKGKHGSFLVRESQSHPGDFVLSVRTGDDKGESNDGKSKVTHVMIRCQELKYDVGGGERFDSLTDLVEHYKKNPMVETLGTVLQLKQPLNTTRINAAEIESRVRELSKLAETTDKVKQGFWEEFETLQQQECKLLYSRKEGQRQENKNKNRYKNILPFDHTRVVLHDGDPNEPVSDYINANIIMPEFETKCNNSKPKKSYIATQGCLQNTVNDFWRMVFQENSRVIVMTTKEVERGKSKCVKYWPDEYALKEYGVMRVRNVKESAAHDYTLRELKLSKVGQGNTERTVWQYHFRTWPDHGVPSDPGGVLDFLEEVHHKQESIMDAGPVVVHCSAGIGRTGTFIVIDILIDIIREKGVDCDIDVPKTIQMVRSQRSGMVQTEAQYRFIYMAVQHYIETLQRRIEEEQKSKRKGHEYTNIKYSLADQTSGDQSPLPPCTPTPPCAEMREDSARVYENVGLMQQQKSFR
Put plainly: Inhibition of recombinant SHP2.

Assay [2] deals with Tyrosine-protein phosphatase non-receptor type 6 (Homo sapiens, UniProt P29350). As to the kind of experiment: Inhibition of recombinant SHP1.
The target of assay [3] is T2, Tyrosine-protein phosphatase non-receptor type 1 (Homo sapiens, UniProt P18031).
T2 sequence (P18031 whole entry): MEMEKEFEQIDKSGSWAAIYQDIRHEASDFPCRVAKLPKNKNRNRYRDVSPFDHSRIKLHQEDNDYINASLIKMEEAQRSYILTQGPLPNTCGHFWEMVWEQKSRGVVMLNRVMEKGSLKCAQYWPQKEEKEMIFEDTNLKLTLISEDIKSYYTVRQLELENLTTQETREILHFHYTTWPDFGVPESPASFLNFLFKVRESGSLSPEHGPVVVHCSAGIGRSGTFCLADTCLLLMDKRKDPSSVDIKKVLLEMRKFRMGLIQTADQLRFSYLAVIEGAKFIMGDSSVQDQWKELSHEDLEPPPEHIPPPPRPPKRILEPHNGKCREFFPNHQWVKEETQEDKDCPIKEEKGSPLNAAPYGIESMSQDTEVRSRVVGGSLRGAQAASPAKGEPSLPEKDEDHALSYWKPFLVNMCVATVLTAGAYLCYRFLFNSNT
As to the kind of experiment: Inhibition of recombinant PTP1B.

Assay [4] addresses T3, Tyrosine-protein phosphatase non-receptor type 7 (Homo sapiens, UniProt P35236).
T3 sequence (P35236 whole entry): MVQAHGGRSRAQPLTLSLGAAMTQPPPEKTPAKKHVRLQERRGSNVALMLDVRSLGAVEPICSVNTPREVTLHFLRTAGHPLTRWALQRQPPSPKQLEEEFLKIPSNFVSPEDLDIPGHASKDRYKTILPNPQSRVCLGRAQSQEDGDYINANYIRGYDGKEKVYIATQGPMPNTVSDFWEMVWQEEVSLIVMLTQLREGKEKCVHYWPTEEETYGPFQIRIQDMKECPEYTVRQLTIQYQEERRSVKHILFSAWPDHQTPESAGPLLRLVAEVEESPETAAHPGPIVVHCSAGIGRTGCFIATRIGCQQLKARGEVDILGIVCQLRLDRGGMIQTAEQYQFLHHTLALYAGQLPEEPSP
As to the kind of experiment: Inhibition of recombinant HePTP.

Assay [5] deals with T1, Tyrosine-protein phosphatase non-receptor type 11. As to the kind of experiment: Binding affinity to recombinant SHP2 by surface plasmon […]. Background: Surface plasmon resonance follows binding to a sensor surface in real time, without labels.
Assay [6] concerns the target T4, Tyrosine-protein phosphatase non-receptor type 11 (Homo sapiens) (UniProt Q06124).
T4 sequence (whole entry): T1 sequence (Q06124 whole entry)
Description: Mixed inhibition of recombinant SHP2 at enzyme-substrate complex by Lineweaver-Burk plot analysis

Assay [7] deals with T4, Tyrosine-protein phosphatase non-receptor type 11 (Homo sapiens). This is another data set of the same source.
Description: Mixed inhibition of recombinant SHP2 by Lineweaver-Burk plot analysis

Tyrosine-protein phosphatase non-receptor type 6, sequence (P29350 whole entry): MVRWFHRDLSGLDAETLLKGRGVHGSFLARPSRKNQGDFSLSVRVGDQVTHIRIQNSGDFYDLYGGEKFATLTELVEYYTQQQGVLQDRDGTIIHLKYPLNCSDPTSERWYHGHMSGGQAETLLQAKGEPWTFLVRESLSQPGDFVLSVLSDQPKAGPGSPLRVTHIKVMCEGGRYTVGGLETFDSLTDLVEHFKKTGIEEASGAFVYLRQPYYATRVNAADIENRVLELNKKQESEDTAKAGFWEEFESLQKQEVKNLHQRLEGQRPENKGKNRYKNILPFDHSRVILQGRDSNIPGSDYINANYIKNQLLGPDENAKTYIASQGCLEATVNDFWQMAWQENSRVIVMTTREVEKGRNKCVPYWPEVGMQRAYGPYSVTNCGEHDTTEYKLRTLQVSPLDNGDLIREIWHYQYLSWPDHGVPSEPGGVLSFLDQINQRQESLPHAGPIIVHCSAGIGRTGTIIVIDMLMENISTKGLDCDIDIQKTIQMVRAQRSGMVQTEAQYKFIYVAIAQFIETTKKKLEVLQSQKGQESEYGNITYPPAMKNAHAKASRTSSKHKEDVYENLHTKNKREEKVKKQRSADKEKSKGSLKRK

As a reminder, the IC50 is the concentration that inhibits the measured activity by half. On to `COc1ccc2c(c1)CC[C@@H]1[C@@H]2CC[C@@]2(C)[C@H]1CC[C@@]21CCNP(=O)(N(CCCl)CCCl)O1` (some centres not stated), for which the IC50 in assay [1] was above 300 µM.

Take `CC1=C(O)C(=O)C=C2C1=CC=C1[C@@]2(C)CC[C@@]2(C)[C@@H]3C[C@](C)(C(=O)O)CC[C@]3(C)CC[C@]12C` [CELASTROL]: the half-maximal inhibitory concentration (IC50) in assay [1] was found to be 3.3 µM; in assay [2], 27.8 µM; in assay [3] it was 13.2 µM; in assay [4], 75.7 µM.

`CC1(C)[C@@H](O)CC[C@]2(C)[C@H]3C(=O)C=C4[C@@H]5C[C@@](C)(C(=O)O)CC[C@]5(C)CC[C@@]4(C)[C@]3(C)CC[C@@H]12` [ENOXOLONE]: the IC50 in assay [1] is 9.6 µM; in assay [2], 65.4 µM; in assay [4], above 300 µM.

Turning to `C[C@]12CC[C@@H]3c4ccc(O)cc4CC[C@H]3[C@@H]1CC[C@@H]2OP(=O)(O)O` [ESTRADIOL PHOSPHATE], the IC50 in assay [1] was 19.9 µM; in assay [2], above 300 µM; in assay [3], above 300 µM; in assay [4], above 300 µM.

Turning to `C[C@]12CC[C@@H]3c4ccc(O)cc4CC[C@H]3[C@@H]1CC[C@@H]2O` [ESTRADIOL], the IC50 in assay [1] is above 300 µM.

Broadly, the Kd is the concentration at which binding is half-saturated. For the molecule `C[C@]12CC[C@@H]3c4ccc(OC(=O)N(CCCl)CCCl)cc4CC[C@H]3[C@@H]1CC[C@@H]2OP(=O)(O)O` [ESTRAMUSTINE PHOSPHATE], the IC50 in assay [1] is 17.1 µM; in assay [2], 40.4 µM; in assay [3] it was 62.4 µM; in assay [4] it was 153 µM. The dissociation constant Kd in assay [5] worked out at 8.4 µM. The Kis in assay [6] is 22.8 µM. In addition, the Kii in assay [7] was found to be 10.8 µM.

`C[C@]12CC[C@@H]3c4ccc(OC(=O)N(CCCl)CCCl)cc4CC[C@H]3[C@@H]1CC[C@@H]2O` [ESTRAMUSTINE]: the half-maximal inhibitory concentration (IC50) in assay [1] was above 300 µM.

As for `CC1=C(O)C(=O)C=C2C1=CC=C1[C@@]2(C)CC[C@@]2(C)[C@@H]3C[C@@H](C)C(=O)C[C@]3(C)CC[C@]12C` [TINGENONE], the IC50 in assay [1] was determined as 61.6 µM.
